Patent US20040229268A1, “Method and kit for identifying antibiotic-resistant microorganisms” (priority 2003, published 2004)

System: mecA gene; Staphylococcus ribosomal nucleic acids
Test: HPA after thermal lysis, base hydrolysis and neutralization (Examples 5-7)
Format: binding, S. aureus
Description: The cultured S. aureus specimens were lysed by suspending 1 μl loops of bacteria in 150 μl of lysis buffer and then incubating at 105° C. for 15 minutes. Next, 100 μl of 2 N LiOH base solution was added and RNA was hydrolyzed by incubating the mixtures at 60° C. for 15 minutes. Hydrolyzed samples were neutralized by the addition of 100 μl of a neutralizing reagent that included 2 N HCl and 100 mM succinate buffer (pH 5.5 prior to acidification with HCl). Specifically hybridized probe was detected by standard HPA, essentially as described in Example 1.
Specimens (1 μl loops of bacteria) were treated and tested essentially as described in Example 5 with the following differences: incubation for lysis was for 15 minutes and incubation for hybridization was for 45 minutes for samples shown in Tables 7-8, while incubation for lysis was for 10 minutes and incubation for hybridization was for 20 minutes for samples shown in Table 9. All of the base-treated solutions were neutralized by the addition of 250 μl of 0.8 N HCl containing 100 mM succinate.
2′-methoxy analogs of the AE-labeled DNA probes were prepared by standard phosphoramidite synthesis using 2′ methoxy phosphoramidite analogs. Additional linker positions, which are indicated by parentheses in Table 11, for probe 2 were also prepared for testing. Deoxy probes and 2′-methoxy probe analogs were tested essentially as described in Example 5, except as noted below. Probes synthesized using 2′-methoxy nucleotide analogs are particularly identified by the “MeO” designations. Brief summaries of the procedures used to obtain the results are appended to the tables.

[1] = Table 7, lysis 15 minutes, hybridization 45 minutes
[2] = Table 8, lysis 15 minutes, hybridization 45 minutes
[3] = Table 9, lysis 10 minutes, hybridization 20 minutes
[4] = Table 10, neutralize 100 μl 2 N HCl containing 200 mM succinate, hybridize 45 minutes at 60° C.

GGTATGTGGAAGTTAGATTGGGATCATAGCG (AE label, linker between 13 and 14, chemistry not fully specified; listed as Staphylococcus aureus) [Probe 1]
RLU (Table 6, GP18(Neg), MSSA ATCC #12600): 821 RLU | RLU (Table 6, GP1214(Neg), MSSA ATCC #29247): 848 RLU | RLU (Table 6, GP1217(Pos), MRSA ATCC #33591): 53,322 RLU | RLU (Table 6, GP1218(Pos), MRSA ATCC #43866): 36,730 RLU | GP18(Neg) RLU [1]: 757 RLU | GP1217(Pos) RLU [1]: 25928 RLU | Probe alone Avg RLU [1]: 3668 RLU | GP18(Neg) RLU [2]: 879 RLU | GP1217(Pos) RLU [2]: 11485 RLU | Probe alone Avg RLU [2]: 1123 RLU | GP1217(Pos) RLU [3]: 27256 RLU | Probe alone Avg RLU [3]: 2476 RLU | GP1214(Neg) RLU [4]: 1844 RLU | GP1217(Pos) RLU [4]: 37695 RLU | Probe alone Avg RLU [4]: 2131 RLU
